The values below come from patent publication US9687479B2, “Multisubstituted aromatic compounds as serine protease inhibitors” (VERSEON CORPORATION, priority 2013, dated 2017).

SMILES strings stand for the structures. Read-outs that look alike come from different tables or passages of the source.

The target of one data set is Human KLKB1 (Homo sapiens (Human), UniProt P03952). As to the kind of experiment: KLKB1 kallikrein activity inhibition assay (chromogenic substrate S-2302). It is filed as biochemical. In outline:
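Enzyme at a final 3 nM was assayed in 0.05 M Tris pH 7.4, 0.01 M NaCl and 0.2% PEG-8000 at room temperature, with compounds as ten-point threefold dilutions.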

Data set [1] concerns the target Recombinant human tissue kallikrein (KLK1) (Homo sapiens (Human), UniProt P06870). Put plainly: KLK1 kallikrein activity inhibition assay (Pro-Phe-Arg-AMC substrate). It is filed as biochemical. The protocol: The KLK1 kallikrein activity reported herein (e.g., Tables B and C) was obtained as follows. Recombinant human tissue kallikrein (KLK1) was obtained from R&D Systems. […] KLK1 enzyme is activated by incubating 0.5 mg/ml KLK1 combined with 0.1 μg/ml thermolysin in a buffer of 0.05 M Tres (pH 7.5), 0.15 M NaCl, and 0.01 M CaCl2 for one hour at 37° C. The thermolysin is then deactivated by the addition of equal parts 20 mM 1, 10 phenanthroline solution in water. The activated KLK1 solution is then added to CHES buffer (0.05 M CHES, 0.15 M NaCl, 0.01 M CaCl2, pH 10) for a final concentration of 5 nM along with the test article and incubated for 10 minutes. […] Substrate activation is read 10 minutes after substrate addition using a Synergy H1 multifunction plate reader (Biotek) programmed with a 360 nm excitation wavelength and a 480 nm emission wavelength. Inhibitor response was established by adding test compound as ten point, three-fold serial dilutions, as known in the art. The IC50 was calculated by plotting the percent (%) inhibition against compound concentration and fitting the data to a constrained four parameter sigmoidal curve, as known in the art.

The nature of data set [2]: Pharmacokinetics in mice (i.v. and p.o.). It is filed as in vivo, male CD-1 mice. As to conditions: plasma. The protocol:
Each compound is administered intravenously (i.v.) as a single dose via tail vein or orally (p.o.) as a single dose via gastric gavage to male CD-1 mice of nominal weights between 20 g and 26 g. Nominal doses are 1 mg/kg and 5 mg/kg for i.v. and p.o., respectively. In some examples (dose type A), both p.o. and i.v. doses are prepared by dissolving the test compound in 5% dimethyl acetamide and diluted in tetraethylene glycol for a final concentration of 0.25 mg/mL. In other examples (dose type B), i.v. doses are prepared by dissolving test compounds in 20% dimethyl acetamide, 40% polyethylene glycol 300 and 40% phosphate buffered saline, and p.o. doses are prepared by dissolving test compounds in carboxymethyl cellulose suspension (1% by weight) in water and 2.5% dimethyl acetamide.
Animals are housed in standard holding cages with food and water available ad libitum except for animals used for p.o. dosing which are fasted overnight prior to dosing. Samples are taken in triplicate via cardiac puncture at times prior to dosing and at 0.083 (i.v. only), 0.25, 0.5, 1, 2, 4, 8, and 24 hours after administration. Plasma is obtained by centrifuge and stored frozen until analyzed by LC-MS/MS using a Shimadzu VP System HPLC coupled to a Applied Biosystems MDS SCIEX API 3000 triple quadrapole MS. Assay results are calibrated using reference samples prepared in a range between 1.5 and 5000 ng/mL.
Pharmacokinetic parameters are calculated from mean concentration values using a non-compartmental analysis as described in the following and as apparent to those of ordinary skill in the art. Half-lives (t1/2) and elimination rate constants (λ) are determined by log linear regression using equal weighting on the last three finite sample time points. Concentration at time zero (C0) for the i.v. data is established by the extrapolation of log linear regression using equal weighting on the first three sample time points. Area under the curve (AUC) values are calculated using linear trapezoidal integration. Systemic clearance (CL) is calculated as the ratio of dosage and AUC. […] Percent oral bioavailability (% F) is determined from the ratio of i.v. and p.o. AUC values weighted by dosage.

The next data set deals with Human thrombin (Homo sapiens (Human), UniProt P00734). Put plainly: Thrombin protease activity inhibition assay (chromogenic substrate S-2238). It is filed as biochemical. As to conditions: 3 nM thrombin, 125 μM S-2238, 10 min pre-incubation, RT. The gist of the method: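 Ten-point, three-fold serial dilutions of compound tested against 3 nM enzyme at RT in Tris buffer (0.05 M, pH 7.4) with 0.015 M NaCl and 0.01% PEG-8000.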

Sequence of Human KLKB1 (P03952 391-638 limits assumed): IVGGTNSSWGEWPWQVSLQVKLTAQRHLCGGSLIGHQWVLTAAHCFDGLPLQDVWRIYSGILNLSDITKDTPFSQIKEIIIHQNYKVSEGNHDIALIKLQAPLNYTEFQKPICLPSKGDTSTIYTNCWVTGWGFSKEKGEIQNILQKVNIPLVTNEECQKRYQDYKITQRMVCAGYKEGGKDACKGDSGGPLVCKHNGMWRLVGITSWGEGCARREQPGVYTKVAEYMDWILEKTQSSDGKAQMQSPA
Sequence of Human KLKB1 (P03952 20-390 partner limits assumed): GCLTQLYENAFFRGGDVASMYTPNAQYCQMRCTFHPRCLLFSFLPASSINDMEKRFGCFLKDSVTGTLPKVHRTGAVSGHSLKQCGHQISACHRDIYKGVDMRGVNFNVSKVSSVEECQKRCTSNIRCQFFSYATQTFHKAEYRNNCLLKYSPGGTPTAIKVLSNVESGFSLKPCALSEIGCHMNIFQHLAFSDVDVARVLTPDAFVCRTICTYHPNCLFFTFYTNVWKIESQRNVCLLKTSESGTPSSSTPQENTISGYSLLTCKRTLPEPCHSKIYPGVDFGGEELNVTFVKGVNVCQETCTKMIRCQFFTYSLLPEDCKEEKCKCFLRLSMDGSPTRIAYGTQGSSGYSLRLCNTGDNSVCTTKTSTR
Sequence of Recombinant human tissue kallikrein (KLK1) (P06870 25-262): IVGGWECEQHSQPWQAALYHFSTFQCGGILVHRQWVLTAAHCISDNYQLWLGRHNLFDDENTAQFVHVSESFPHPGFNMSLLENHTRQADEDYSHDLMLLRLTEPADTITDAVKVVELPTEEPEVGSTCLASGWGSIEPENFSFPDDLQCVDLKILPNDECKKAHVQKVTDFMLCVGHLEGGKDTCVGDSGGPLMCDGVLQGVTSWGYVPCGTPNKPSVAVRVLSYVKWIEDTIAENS

Broadly, the IC50 is the concentration that gives 50% inhibition. For `COc1ccccc1C(=O)n1nc(-c2ncccn2)nc1NCc1ccccc1` [Cmpd 18], the IC50 is 100 to 1000 nM against Human KLKB1 (Table C) and 10 to 100 µM in data set [1] (Table C).

As usually defined, the AUC is the area under the concentration-time curve, a measure of exposure. As to `CC(C)(C)C(=O)n1nc(C2CCNCC2)c(F)c1NCc1ccc(Cl)s1` [Cmpd 24], the bioavailability in data set [2] (male, CD-1, mouse, po, 5 mg/kg, read-out: % F) was 70%. Moreover, the AUC stood at 200 ng·h/mL in data set [2] (mouse, iv, male CD-1 mice, single i.v. dose 1 mg/kg, dose type A (5% dimethyl acetamide, tetraethylene glycol), read-out: i.v. AUC) and 600 ng·h/mL in data set [2] (mouse, po, male CD-1 mice, single p.o. dose 5 mg/kg, dose type A (5% dimethyl acetamide, tetraethylene glycol), read-out: p.o. AUC). Moreover, the C0 in data set [2] (mouse, iv, male CD-1 mice, single i.v. dose 1 mg/kg, dose type A (5% dimethyl acetamide, tetraethylene glycol), read-out: i.v. C0) came out at 200 ng/mL. Moreover, the clearance in data set [2] (mouse, iv, male CD-1 mice, single i.v. dose 1 mg/kg, dose type A (5% dimethyl acetamide, tetraethylene glycol), read-out: i.v. CL (converted)) was 83.3 mL/min/kg. In data set [2] (mouse, iv, male CD-1 mice, single i.v. dose 1 mg/kg, dose type A (5% dimethyl acetamide, tetraethylene glycol), read-out: i.v. Vd), the Vd was found to be 8 L/kg. Besides, the half-life was 60 min in data set [2] (mouse, iv, male CD-1 mice, single i.v. dose 1 mg/kg, dose type A (5% dimethyl acetamide, tetraethylene glycol), read-out: i.v. t1/2 (converted)) and 60 min in data set [2] (mouse, po, male CD-1 mice, single p.o. dose 5 mg/kg, dose type A (5% dimethyl acetamide, tetraethylene glycol), read-out: p.o. t1/2 (converted)).

With `O=C(c1ccc(N2CCOCC2)cc1)n1nc(-c2cccn(CCN3CCOCC3)c2=O)cc1NCc1ccc(Cl)s1` [Cmpd 218, 3-(5-[(5-chlorothiophen-2-yl)methyl]amino-1-[4-(morpholin-4-yl)phenyl]carbonyl-1H-pyrazol-3-yl)-1-[2-(morpholin-4-yl)ethyl]-1,2-dihydropyridin-2-one], the IC50 against Human thrombin is less than 100 nM; at Human KLKB1 (Table B), 100 to 1000 nM.

As to `O=c1c(-c2cc(NCc3ccc(Cl)s3)[nH]n2)cccn1Cc1ccccn1` [Cmpd 227, 3-(5-[(5-chlorothiophen-2-yl)methyl]amino-1H-pyrazol-3-yl)-1-(pyridin-2-ylmethyl)-1,2-dihydropyridin-2-one], the IC50 on Human thrombin is 1000 to 10000 nM; at Human KLKB1 (Table B), more than 100000 nM.

Regarding `O=c1c(-c2cc(NCc3ccc(Cl)s3)[nH]n2)cccn1Cc1ccncc1` [Cmpd 229, 3-(5-[(5-chlorothiophen-2-yl)methyl]amino-1H-pyrazol-3-yl)-1-(pyridin-4-ylmethyl)-1,2-dihydropyridin-2-one], the IC50 on Human thrombin was 1000 to 10000 nM; at Human KLKB1 (Table B), more than 100000 nM.

In the case of `O=c1c(-c2cc(NCc3ccc(Cl)s3)n[nH]2)cccn1CCc1ccccn1` [Cmpd 235, 3-(5-[(5-chlorothiophen-2-yl)methyl]amino-1H-pyrazol-3-yl)-1-[2-(pyridin-2-yl)ethyl]-1,2-dihydropyridin-2-one], the IC50 on Human thrombin and against Human KLKB1 (Table B) was 10000 to 100000 nM each time.

With `O=C(c1ccco1)n1nc(-c2ccc[nH]c2=O)cc1NCc1ccccc1` [Cmpd 237, 3-[5-(benzylamino)-1-[(furan-2-yl)carbonyl]-1H-pyrazol-3-yl]-1,2-dihydropyridin-2-one], the values for the IC50 against Human thrombin and on Human KLKB1 (Table B) were 100 to 1000 nM and 10000 to 100000 nM, respectively.

As to `O=C(c1ccco1)n1nc(-c2cccn(Cc3ccccn3)c2=O)cc1NCc1ccccc1` [Cmpd 238, 3-[5-(benzylamino)-1-[(furan-2-yl)carbonyl]-1H-pyrazol-3-yl]-1-(pyridin-2-ylmethyl)-1,2-dihydropyridin-2-one], the concentration for half-maximal inhibition (IC50) against Human thrombin is less than 100 nM; against Human KLKB1 (Table B), 1000 to 10000 nM.

Consider `O=C(c1ccccc1Cl)n1nc(-c2cccn(Cc3ccco3)c2=O)cc1NCc1ccc(Cl)s1` [Cmpd 243, 3-1-[(2-chlorophenyl)carbonyl]-5-[(5-chlorothiophen-2-yl)methyl]amino-1H-pyrazol-3-yl-1-(furan-2-ylmethyl)-1,2-dihydropyridin-2-one], for which the IC50 against Human thrombin is less than 100 nM; at Human KLKB1 (Table B) it was 100 to 1000 nM.

Regarding `O=C(c1ccccc1Cl)n1nc(-c2cccn(Cc3ccoc3)c2=O)cc1NCc1ccc(Cl)s1` [Cmpd 244, 3-1-[(2-chlorophenyl)carbonyl]-5-[(5-chlorothiophen-2-yl)methyl]amino-1H-pyrazol-3-yl-1-(furan-3-ylmethyl)-1,2-dihydropyridin-2-one], the IC50 is less than 100 nM against Human thrombin and 100 to 1000 nM on Human KLKB1 (Table B).

With `Cn1cccc(-c2cc(NCc3ccc(Cl)s3)n(C(=O)C3(COC(=O)C4(CO)CC4)CC3)n2)c1=O` [Cmpd 265, 1-[(5-[(5-chlorothiophen-2-yl)methyl]amino-3-(1-methyl-2-oxo-1,2-dihydropyridin-3-yl)-1H-pyrazol-1-yl)carbonyl]cyclopropylmethyl 1-(hydroxymethyl)cyclopropane-1-carboxylate], the IC50 at Human thrombin was less than 100 nM; on Human KLKB1 (Table B), 1000 to 10000 nM.

With `Nc1ccccc1C(=O)n1nc(-c2ncccc2F)cc1NCc1ccc(Cl)s1` [Cmpd 276], the IC50 against Human KLKB1 (Table B) lay in the range of 1000 to 10000 nM; in data set [1] (Table B) it was 10 to 100 µM.

On to `Nc1ccccc1C(=O)n1nc(-c2ccco2)cc1NCc1ccc(Cl)s1` [Cmpd 277], for which the IC50 against Human KLKB1 (Table B) was in the range of 1000 to 10000 nM; in data set [1] (Table B), 10 to 100 µM.

For `COc1ccccc1C(=O)n1nc(C2CCCCC2O)cc1NCc1ccc(Cl)s1` (centres unmarked) [Cmpd 282], the IC50 is 1000 to 10000 nM against Human KLKB1 (Table B) and more than 100 µM in data set [1] (Table B).

Consider `O=C(c1ccsc1)n1nc(-c2cccnn2)cc1NCc1ccc(Cl)s1` [Cmpd 292], for which the values for the half-inhibitory concentration (IC50) (at Human KLKB1 (Table B); in data set [1] (Table B)) were 100 to 1000 nM and more than 100 µM, respectively.

On to `O=C(c1ccsc1)n1nc(-c2ccccn2)cc1NCc1ccc(Cl)s1` [Cmpd 293], for which the IC50 was 100 to 1000 nM against Human KLKB1 (Table B) and more than 100 µM in data set [1] (Table B).

As for `O=C(c1ccoc1)n1nc(C2CCOCC2)c(F)c1NCc1ccc(Cl)s1` [Cmpd 294], the IC50 is 1000 to 10000 nM against Human KLKB1 (Table B) and more than 100 µM in data set [1] (Table B).

Regarding `COc1ccc(CNc2nc(-c3ccccn3)nn2C(=O)CCc2ccccc2)cc1` [Cmpd 323], the IC50 lay in the range of 1000 to 10000 nM against Human KLKB1 (Table C) and 10 to 100 µM in data set [1] (Table C).

In the case of `COc1ccccc1C(=O)n1nc(-c2ccccn2)nc1NCc1nccs1` [Cmpd 332], the IC50 against Human KLKB1 (Table C) fell in the range of 10000 to 100000 nM; in data set [1] (Table C) it was 0.1 to 1 µM.

With `COc1ccc(CNc2nc(-c3ccccn3)nn2C(=O)c2ccccc2)cc1` [Cmpd 360], the IC50 was in the range of 1000 to 10000 nM at Human KLKB1 (Table C) and 1 to 10 µM in data set [1] (Table C).

Take `COc1ccc(CNc2nc(-c3cccnc3)nn2C(=O)c2ccccc2)cc1` [Cmpd 361]: the IC50 against Human KLKB1 (Table C) lay within 1000 to 10000 nM; in data set [1] (Table C) it was 1 to 10 µM.

As to `O=C(c1ccccc1)n1nc(-c2ccccn2)nc1NCc1ccccc1` [Cmpd 362], the IC50 was in the range of 100 to 1000 nM on Human KLKB1 (Table C) and 10 to 100 µM in data set [1] (Table C).

Consider `COc1ccccc1C(=O)n1nc(-c2cccnc2)nc1SC` [Cmpd 366, 3-1-[(2-methoxyphenyl)carbonyl]-5-(methylsulfanyl)-1H-1,2,4-triazol-3-ylpyridine], for which the values for the IC50 (against Human KLKB1 (Table C); in data set [1] (Table C)) were 1000 to 10000 nM and 1 to 10 µM, respectively.

Regarding `COc1ccc(C(=O)n2nc(C3CCOCC3)nc2NCc2ccc(Cl)s2)c(OC)c1` [Cmpd 384], the IC50 against Human KLKB1 (Table C) was in the range of 100 to 1000 nM; in data set [1] (Table C) it was 10 to 100 µM.

Regarding `COc1ccccc1C(=O)n1nc(C2CCNCC2)nc1NCc1ccc(Cl)s1` [Cmpd 387], the IC50 is less than 100 nM against Human KLKB1 (Table C) and 10 to 100 µM in data set [1] (Table C).

With `Cc1ccccc1C(=O)n1nc(-c2ccccn2)nc1NCc1ccc(Cl)s1` [Cmpd 391], the half-inhibitory concentration (IC50) against Human KLKB1 (Table C) lay within 100 to 1000 nM; in data set [1] (Table C) it was 10 to 100 µM.

Turning to `COc1ccccc1C(=O)n1nc(-c2ccc(N(C)C)cc2)nc1NCc1ccc(Cl)s1` [Cmpd 393], the IC50 lay within 100 to 1000 nM on Human KLKB1 (Table C) and 10 to 100 µM in data set [1] (Table C).

Turning to `O=C(c1ccsc1)n1nc(-c2ccncc2)nc1NCc1ccccc1` [Cmpd 407], the concentration for half-maximal inhibition (IC50) is 100 to 1000 nM against Human KLKB1 (Table C) and more than 100 µM in data set [1] (Table C).
